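Where inhibition never reached the appropriate level, the endpoint shown equals the highest concentration tested. Otherwise, values were interpolated linearly from a five-concentration, 48-hour dose response in 96-well plates. At the GI50, growth is halved.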 Active and inactive are the calls of the source. Cut-off read from the data, not from the text of the source: active = GI50 up to about 1.1 µM and inactive = higher.
Columns and labels:
Assay in all cases: NCI anticancer screen, dose series, 48 h
786-0 = system: 786-0
A498 = system: A498
A549 = system: A549
BT-549 = system: BT-549
CAKI-1 = system: CAKI-1
CCRF-CEM = system: CCRF-CEM
COLO 205 = system: COLO 205
DU-145 = system: DU-145
EKVX = system: EKVX
HCT-116 = system: HCT-116
HCT-15 = system: HCT-15
HL-60 = system: HL-60
HOP-62 = system: HOP-62
HOP-92 = system: HOP-92
HT-29 = system: HT-29
Hs-578T = system: Hs-578T
IGROV-1 = system: IGROV-1
K562 = system: K562
KM12 = system: KM12
LOX IMVI = system: LOX IMVI
M14 = system: M14
MCF7 = system: MCF7
MDA-MB-231 = system: MDA-MB-231
MDA-MB-435 = system: MDA-MB-435
MDA-N = system: MDA-N
MOLT-4 = system: MOLT-4
Malme-3M = system: Malme-3M
NCI-H226 = system: NCI-H226
NCI-H23 = system: NCI-H23
NCI-H460 = system: NCI-H460
NCI-H522 = system: NCI-H522
NCI/ADR-RES = system: NCI/ADR-RES
OVCAR-3 = system: OVCAR-3
OVCAR-5 = system: OVCAR-5
OVCAR-8 = system: OVCAR-8
RPMI-8226 = system: RPMI-8226
RXF 393 = system: RXF 393
SF-268 = system: SF-268
SF-295 = system: SF-295
SF-539 = system: SF-539
SK-MEL-28 = system: SK-MEL-28
SK-MEL-2 = system: SK-MEL-2
SK-MEL-5 = system: SK-MEL-5
SK-OV-3 = system: SK-OV-3
SN12C = system: SN12C
SNB-19 = system: SNB-19
SNB-75 = system: SNB-75
SR = system: SR
SW-620 = system: SW-620
T47D = system: T47D
TK-10 = system: TK-10
U-251 = system: U-251
UACC-257 = system: UACC-257
UACC-62 = system: UACC-62
UO-31 = system: UO-31

`CSC(=S)N(C)C` [CYSTOGON] was tested. Which GI50 (786-0) did it give?
Its GI50 is > 100 µM (inactive).

What about the GI50 (A498) of the same compound?
The GI50 was > 100 µM (inactive).

And the GI50 (A549)?
The GI50 was > 100 µM (inactive).

What about the GI50 (BT-549) of the same compound?
The GI50 was > 100 µM (inactive).

What about the GI50 (CAKI-1) of the same compound?
The GI50 was > 100 µM (inactive).

What about the GI50 (CCRF-CEM) of the same compound?
Its GI50 is > 100 µM (inactive).

And the GI50 (COLO 205)?
Its GI50 is > 100 µM (inactive).

And the GI50 (DU-145)?
Its GI50 is > 100 µM (inactive).

What about the GI50 (EKVX) of the same compound?
The GI50 was > 100 µM (inactive).

And the GI50 (HCT-116)?
The GI50 was > 100 µM (inactive).

And the GI50 (HCT-15)?
Its GI50 is greater than 100 µM.

What about the GI50 (HL-60) of the same compound?
The GI50 was > 100 µM (inactive).

And the GI50 (HOP-62)?
The GI50 was > 100 µM (inactive).

And the GI50 (HOP-92)?
The GI50 was > 100 µM (inactive).

And the GI50 (HT-29)?
The GI50 was > 100 µM (inactive).

And the GI50 (Hs-578T)?
Its GI50 is > 100 µM (inactive).

What about the GI50 (IGROV-1) of the same compound?
The GI50 was > 100 µM (inactive).

What about the GI50 (K562) of the same compound?
Its GI50 is > 100 µM (inactive).

And the GI50 (KM12)?
The GI50 was > 100 µM (inactive).

And the GI50 (LOX IMVI)?
The GI50 was > 100 µM (inactive).

And the GI50 (M14)?
Its GI50 is > 100 µM (inactive).

And the GI50 (MCF7)?
The GI50 was > 100 µM (inactive).

And the GI50 (MDA-MB-231)?
The GI50 was > 100 µM (inactive).

And the GI50 (MDA-MB-435)?
Its GI50 is > 100 µM (inactive).

What about the GI50 (MDA-N) of the same compound?
The GI50 was > 100 µM (inactive).

What about the GI50 (MOLT-4) of the same compound?
Its GI50 is > 100 µM (inactive).

And the GI50 (Malme-3M)?
The GI50 was > 100 µM (inactive).

And the GI50 (NCI-H226)?
Its GI50 is > 100 µM (inactive).

And the GI50 (NCI-H23)?
Its GI50 is > 100 µM (inactive).

And the GI50 (NCI-H460)?
The GI50 was > 100 µM (inactive).

And the GI50 (NCI-H522)?
The GI50 was > 100 µM (inactive).

What about the GI50 (NCI/ADR-RES) of the same compound?
The GI50 was > 100 µM (inactive).

And the GI50 (OVCAR-3)?
The GI50 was > 100 µM (inactive).

And the GI50 (OVCAR-5)?
The GI50 was > 100 µM (inactive).

What about the GI50 (OVCAR-8) of the same compound?
Its GI50 is > 100 µM (inactive).

What about the GI50 (RPMI-8226) of the same compound?
Its GI50 is > 100 µM (inactive).

What about the GI50 (RXF 393) of the same compound?
Its GI50 is > 100 µM (inactive).

And the GI50 (SF-268)?
Its GI50 is > 100 µM (inactive).

And the GI50 (SF-295)?
Its GI50 is > 100 µM (inactive).

What about the GI50 (SF-539) of the same compound?
Its GI50 is > 100 µM (inactive).

What about the GI50 (SK-MEL-28) of the same compound?
Its GI50 is > 100 µM (inactive).

And the GI50 (SK-MEL-2)?
Its GI50 is > 100 µM (inactive).

What about the GI50 (SK-MEL-5) of the same compound?
Its GI50 is > 100 µM (inactive).

And the GI50 (SK-OV-3)?
The GI50 was > 100 µM (inactive).

And the GI50 (SN12C)?
Its GI50 is > 100 µM (inactive).

And the GI50 (SNB-19)?
The GI50 was > 100 µM (inactive).

And the GI50 (SNB-75)?
Its GI50 is 80 µM (inactive).

What about the GI50 (SR) of the same compound?
Its GI50 is > 100 µM (inactive).

And the GI50 (SW-620)?
Its GI50 is > 100 µM (inactive).

And the GI50 (T47D)?
The GI50 was > 100 µM (inactive).

What about the GI50 (TK-10) of the same compound?
The GI50 was > 100 µM (inactive).

And the GI50 (U-251)?
Its GI50 is > 100 µM (inactive).

What about the GI50 (UACC-257) of the same compound?
The GI50 was > 100 µM (inactive).

And the GI50 (UACC-62)?
Its GI50 is > 100 µM (inactive).

What about the GI50 (UO-31) of the same compound?
The GI50 was > 100 µM (inactive).

— ChEMBL document CHEMBL1201862, “PubChem BioAssay data set” (2004)
